The record followed here is patent publication US10314816B2, “Antimicrobial compounds, compositions and methods of use thereof” (Wisconsin Alumni Research Foundation, priority 2012, dated 2019).

One may read the MIC as the lowest concentration found to suppress growth.

One assay relates to E. aerogenes. Description: MIC of bacterial growth (Table 2). In kind it is cell-based, Enterobacter aerogenes. Particulars: Klebsiella aerogenes; E. aerogenes clinical isolate (Table 2). The protocol:
Determination of the minimum inhibitory concentration (MIC) of bacterial growth. The MIC of various organisms in liquid media was determined using the macrodilution method according to the NCCLS guidelines. For the starting inoculum, cultures were diluted to contain approximately 5×10^5 cells/mL in growth media. To create a two-fold dilution series for the macrodilution technique, each compound was added to the first culture tube (4 mL total volume) at the highest concentration. 2 mL of this culture was diluted into an equal volume of inoculated media (a two-fold dilution). The final volume for each culture was 2 mL.

A further assay deals with Acinetobacter baumannii. Description: MIC of DCAP analogs, LB media, microdilution (CLSI). In kind it is cell-based. The settings on record: microdilution (Table 6). The protocol: (§1) Luria-Bertani (LB) media (10 g/L tryptone, 10 g/L NaCl, 5 g/L yeast extract, pH 7.0) was used to grow all the strains represented in Tables 5 and 6. All the cultures were grown at 37° C. All the E. coli strains were grown while shaking at 200 rpm and the clinical pathogens were statically incubated.
(§2) For clinical pathogenic organisms including S. typhimurium, V. cholera, S. boydii, K pneumonia, E. aerogenes, A. baumannii, E. tarda, and M. morganii strains, liquid LB media in 96-well microplates (100 μL/well) and the microdilution method from the CLSI guidelines were used.
A general note: Dilution methods test growth across graded concentrations, often in twofold steps.

For a further assay, the system named is Edwardsiella tarda. The description is as above. The assay is classed as cell-based. Particulars: microdilution (Table 6). The protocol:
as §1, §2

A further assay deals with Enterobacter aerogenes. The description is as above. In kind it is cell-based. Particulars: Klebsiella aerogenes, microdilution (Table 6). The protocol: as §1, §2
The subject of another assay is Klebsiella pneumonia. The assay is described as above. In kind it is cell-based. The settings on record: Klebsiella pneumoniae, microdilution (Table 6). The protocol: as §1, §2
A further assay has as its system Morganella morganii. The description is as above. The assay is classed as cell-based. Particulars: microdilution (Table 6). The protocol:
as §1, §2

For a further assay, the system named is Salmonella typhimurium. The assay is described as above. The assay is classed as cell-based. The settings on record: Salmonella enterica, microdilution (Table 6). The protocol: as §1, §2
A further assay has as its system Shigella boydii. Described as above. In kind it is cell-based. The settings on record: microdilution (Table 6). The protocol: as §1, §2
A further assay relates to Vibrio cholera. Described as above. The assay is classed as cell-based. Particulars: Vibrio cholerae. The protocol:
as §1, §2

For another assay, the system named is MipZ-YFP. Description: Effects of compounds on MipZ localization. The assay is classed as cell-based, Caulobacter crescentus. Particulars: DCAP 20 μM, 20 min after treating C. crescentus cells; p=0.0002 vs DMSO. The protocol:
Effects of compounds on MipZ localization. A strain of C. crescentus in which MipZ was translationally fused to yellow fluorescent protein (YFP) was used to determine the effect of DCAP on MipZ localization. For experiments with C. crescentus expressing MipZ-YFP, overnight cultures were diluted 10-fold and incubated at least 1 hour prior to treatment with compounds. After adding compounds, cells were incubated at 200 rpm and 30° C. for 20 minutes. Cells were imaged as described above. Following cell segmentation and fluorescence signal calculation in MicrobeTracker, a separate MATLAB script was used to detect signal peaks within an individual cell. The number of total peaks and peak locations were calculated (i.e., poles or mid-cell) for each cell. Poles were defined as 1-25% and 75-100% along the normalized cell length (1-100%). […] After this classification, a contingency table was created with the total number of cells analyzed, and the number of cells with the ‘wildtype’ localization. […]
As a positive control, carbonyl cyanide m-chlorophenyl hydrazone (CCCP) was used. In FIG. 3, ‘wildtype’ (WT) localization was defined as 1) unipolar (a single peak of fluorescence signal at a pole) and 2) bipolar (two peaks at poles). […] At least 69 cells were analyzed for each sample. […]

In assay [1] the test system is C. crescentus strain (MT97). Description: In vivo screen with C. crescentus strain that expresses MipZ-YFP. The assay is classed as cell-based, Caulobacter crescentus. Particulars: 20 μM in agarose pad; data not shown. The protocol:
In vivo screen with a Caulobacter crescentus strain that expresses MipZ-YFP. Hits from in vitro screens were tested for activity in vivo. A C. crescentus strain (MT97) that expresses mipZ-yfp from the native mipZ promoter was used. An overnight culture of MT97 was diluted to an absorbance (λ=600 nm) of ˜0.1; the diluted culture was grown further for at least 1 hour prior to compound treatment. Compounds were mixed with a solution of 1% agarose in M2G media to achieve a final concentration of 20 μM. The cells (1 μL per pad) were transferred on top of the compound-containing agarose pad, and the cell morphology and localization of MipZ-YFP were imaged for a period of 24 hours using epifluorescence microscopy. In between microscopic observations, the inoculated pads were incubated at 30° C. to promote growth.
Hits were further screened for antibacterial activity using a Caulobacter crecentus strain that expresses MipZ-YFP as described in Materials and Methods.

Regarding `OCC(CO)(CO)NCC(O)Cn1c2ccc(Cl)cc2c2cc(Cl)ccc21` (centres unmarked) [DCAP, 2-((3-(3,6-dichloro-9H-carbazol-9-yl)-2-hydroxypropyl)amino)-2-(hydroxymethyl)propane-1,3-diol], the MIC in the assay with E. aerogenes is 200 µM; with Acinetobacter baumannii, 200 µM; in the assay on Edwardsiella tarda it was 100 µM; in the assay on Enterobacter aerogenes, 200 µM; with Klebsiella pneumonia it was 200 µM; with Morganella morganii, 200 µM. Besides, the MIC in the assay on Salmonella typhimurium was 100 µM; in the assay with Shigella boydii it was 100 µM; with Vibrio cholera it was 50 µM. The MipZ-YFP localization result with MipZ-YFP is “caused MipZ-YFP to mislocalize”. Moreover, in assay [1], the “Antibacterial activity in the MipZ-YFP assay” value is recorded as “confirmed as having antibacterial activity”.
